Laboratory results: ChEMBL document CHEMBL5604063, “ASAP - DENV-2 NS2B-NS3 protease fluorescence dose response” (2024)
Values joined by “and” are separate entries in the source; they are usually repeats but may differ in a detail not shown here. Identical values can stand only once.

Key:
[1] = biological target: T1, Genome polyprotein (dengue virus type 2, UniProt P29990); type: functional, Thailand/16681/1984
[2] = biological target: T1, Genome polyprotein; type: functional, Thailand/16681/1984; remark: listed apart in the source

T1 sequence (P29990 1346-1475 limits assumed): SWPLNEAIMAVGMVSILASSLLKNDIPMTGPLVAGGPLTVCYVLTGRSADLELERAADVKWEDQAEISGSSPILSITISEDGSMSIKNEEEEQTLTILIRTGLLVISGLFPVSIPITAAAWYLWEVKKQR
T1 sequence (P29990 1476-2093 limits assumed): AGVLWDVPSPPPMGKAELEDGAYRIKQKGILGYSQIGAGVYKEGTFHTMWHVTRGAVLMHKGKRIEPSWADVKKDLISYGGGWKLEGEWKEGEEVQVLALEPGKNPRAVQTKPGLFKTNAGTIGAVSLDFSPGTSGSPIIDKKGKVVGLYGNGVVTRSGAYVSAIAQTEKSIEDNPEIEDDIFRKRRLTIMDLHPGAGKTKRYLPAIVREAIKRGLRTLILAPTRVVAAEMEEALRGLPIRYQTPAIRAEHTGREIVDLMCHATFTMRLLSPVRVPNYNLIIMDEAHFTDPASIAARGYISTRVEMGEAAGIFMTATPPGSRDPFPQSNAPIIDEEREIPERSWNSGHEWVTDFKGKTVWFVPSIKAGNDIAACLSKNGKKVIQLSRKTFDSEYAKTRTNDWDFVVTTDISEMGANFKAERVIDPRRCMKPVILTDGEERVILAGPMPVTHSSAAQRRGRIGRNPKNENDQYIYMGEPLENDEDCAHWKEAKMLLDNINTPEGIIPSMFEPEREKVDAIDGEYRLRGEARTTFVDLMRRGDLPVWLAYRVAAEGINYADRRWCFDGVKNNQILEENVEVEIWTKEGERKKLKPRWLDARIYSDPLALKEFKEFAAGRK

Compound	IC50 [1]	IC50 [2]
O=C(Nc1cc(Cl)cc(-c2ccc3[nH]c(C(=O)O)cc3c2)c1)OCc1ccccc1	6.65 µM and 5.47 µM	5.48 µM and 4.93 µM
O=C(Nc1ccc2c(c1)CNC2)c1cc(Cl)cc2[nH]c(COc3ccccn3)nc12	> 99.5 µM	20.1 µM and 16.8 µM
CCNC(=O)c1ccc2c(c1)nc(N1CC[C@H](CO)C1)c(=O)n2CC	> 99.5 µM	> 100 µM
Cc1c(C(=O)Nc2ccc(CCN)cc2)cc(C2CC2)n1C	> 99.5 µM	> 100 µM
COCn1ncc2c(C(=O)Nc3ccc4c(c3)CNC4)cc(Cl)cc21	> 99.5 µM	> 100 µM
Cc1cc(CN)cc(NC(=O)c2cc(C3CC3)n(C)c2C)c1	> 99.5 µM	> 100 µM
NCc1cccc(NC(=O)[C@@H](NC(=O)OCc2ccccc2)C2CCN(C(=O)c3cscn3)CC2)c1	> 99.5 µM	> 100 µM
Cc1onc(C(=O)Nc2cccc(CN)c2)c1CN1CCCC1	> 99.5 µM	> 100 µM
Cc1c(C(=O)Nc2cc(-c3cccnc3)ccn2)cc(C(C)C)n1C	> 99.5 µM	> 100 µM
NCc1cccc(NC(=O)c2cc(Cl)cc([C@H]3CCCCN3)c2)c1	> 99.5 µM	> 100 µM
COc1ccc(COc2ccc([C@H](NC(=O)OCc3ccccc3)C(=O)Nc3cccc(CN)c3)cc2)cn1	> 99.5 µM	> 100 µM
Cc1c(C(=O)Nc2cccc([C@H]3CCNC3)c2)cc(C2CC2)n1C	> 99.5 µM	> 100 µM
O=C(NC1CCOCC1)[C@H](Nc1ccc2c(c1)CNC2)c1cc(Cl)cc2[nH]ncc12	> 99.5 µM	> 100 µM
Clc1cc(CNc2ccc3c(c2)[C@@H]2CC[C@H]3N2)c2cn[nH]c2c1	> 99.5 µM	> 100 µM
O=S(=O)(Cc1nnc(Cc2ccccc2)o1)c1ccc(O)cc1	> 99.5 µM	> 100 µM
NCc1cccc(NC(=O)[C@H](NC(=O)OCc2ccccc2)c2cccc(-c3ccnc(N)c3)c2)c1	> 99.5 µM	> 100 µM
COC(=O)[C@]12CC[C@](C(=O)Nc3cccc(CN)c3)(COC1)C2	> 99.5 µM	> 100 µM
Cc1cc(C(=O)Nc2cccc(CN)c2)nc2c(C(C)C)cnn12	> 99.5 µM	> 100 µM
CC(C)c1ncc(OC2CCC2)c(C(=O)Nc2cccc(CN)c2)n1	> 99.5 µM	> 100 µM
C#Cc1cc(NC(=O)OCc2ccccc2)cc(C(=O)Nc2cccc(CN)c2)c1	81.7 µM	> 100 µM
Cc1c(C(=O)Nc2cc(C(=O)N3CCC(O)CC3)ccn2)cc(C2CC2)n1C	> 99.5 µM	> 100 µM

Compound	IC50 [1]	IC50 [2]
O=C(Nc1ccc2c(c1)CNC2)c1cc(C(F)(F)F)nc2[nH]ccc12	> 99.5 µM	> 100 µM
O=C1Cc2c(cccc2C(=O)N[C@H]2C[C@@H](c3ncc[nH]3)C2)N1	> 99.5 µM	> 100 µM
O=C1NCc2c1cccc2C(=O)Nc1ccc2c(c1)CNC2	> 99.5 µM	> 100 µM
O=C1Cc2c(cccc2C(=O)Nc2ccc3c(c2)CNCCO3)N1	> 99.5 µM	> 100 µM
CC1(C)C(=O)Nc2ccc(C(=O)Nc3ccc4c(c3)CNC4)cc21	> 99.5 µM	> 100 µM
Cc1ccc(NC(=O)c2cc(Cl)cc(NC(=O)OCc3ccccc3)c2)cc1CN	> 99.5 µM and 95.8 µM	> 100 µM
CCOC(=O)c1csc([C@H]2CCCN2C(=O)Nc2ccc3c(c2)CNC3)n1	> 99.5 µM	> 100 µM
O=C(Nc1ccc2c(c1)CNC2)c1cc(Br)cc2[nH]c([C@H]3CCOC3)nc12	98.5 µM	> 100 µM
CC[C@H](Cc1nnn[nH]1)c1ccc(NC(=O)c2cc(Cl)cc(-n3cccc3)c2)cc1	26.4 µM	14.7 µM and 20.9 µM
CCc1cc(Br)cc2c(Cc3ccc(-c4nnn[nH]4)cc3)c[nH]c12	12 µM	8.03 µM and 9.26 µM
Cc1csc(N2CCN(Cc3c[nH]c4ccccc34)CC2)n1	> 99.5 µM	> 100 µM
Cc1cc(-c2ccc3[nH]c(C(=O)O)cc3c2)c(=O)n(Cc2ccccc2)c1	> 99.5 µM	> 100 µM
O=C(Nc1ccc2c(c1)CNC2)C1CCCCC1	> 99.5 µM	> 100 µM
Cc1c(C(=O)Nc2cc(CCCN)ccn2)cc(C2CC2)n1C	74.6 µM and 35.9 µM	> 100 µM
O=C1C[C@H]2[C@H](CCCN2C(=O)Nc2ccc3c(c2)CNC3)N1	> 99.5 µM	75.5 µM and 46.1 µM and > 100 µM (2×)
O=C(Nc1cc(Cl)cc(C(=O)Nc2ccc3c(c2)C[C@H](O)C3)c1)OCc1ccccc1	> 99.5 µM	> 100 µM
C=C[C@H]1NCc2cc(NC(=O)c3cc(F)cc4[nH]ncc34)ccc21	86.6 µM	34 µM
NCc1ccc(-c2csc3cc(C(=O)Nc4ccc5c(c4)CNC5)ccc23)cc1	28.4 µM and 18.3 µM	> 100 µM
C=CC[C@H](Nc1cncc(Cl)c1)c1cccc(-c2nn[nH]n2)c1	> 99.5 µM	> 100 µM
O=C(Nc1cccc(-c2nnn[nH]2)c1)c1cc(Cl)cc(C2CC2)c1	82.9 µM	39.7 µM and 43.5 µM
CC1(C)C[C@H](C(=O)Nc2ccc3c(c2)C(=O)OC3)CCN1	> 99.5 µM	> 100 µM

Compound	IC50 [1]	IC50 [2]
NCc1cccc(NC(=O)[C@@H](NC(=O)OCc2ccccc2)c2ccc(OCc3nc4c(s3)COCC4)cc2)c1	> 99.5 µM	> 100 µM
N#Cc1csc2cc(C(=O)Nc3ccc4c(c3)CNC4)ccc12	> 99.5 µM	> 100 µM
CCn1c(=O)c(N2CC[C@H](CO)C2)nc2ccc(C(N)=O)cc21	81.7 µM	> 100 µM
O=C(Nc1ccc2c(c1)CNC2)c1cc(Br)cc2c1nc1n2CCCC1	23.8 µM	47.5 µM and 35.2 µM
NCc1cccc(NC(=O)[C@@H](NC(=O)OCc2ccccc2)C2CCN(S(=O)(=O)Cc3ncon3)CC2)c1	> 99.5 µM	> 100 µM
c1ccc2c(CNC3CCN(Cc4cscn4)CC3)c[nH]c2c1	> 99.5 µM	> 100 µM
CS(=O)(=O)c1cccc(NC(=O)c2cc(Cl)cc(NC(=O)OCc3ccccc3)c2)c1	> 99.5 µM	> 100 µM
CCCC(=O)Nc1cc(Cl)cc(C(=O)Nc2cccc(CN)c2)c1	> 99.5 µM	> 100 µM
NCc1cccc(NC(=O)c2cc(Cl)cc(N3CCCC3)c2)c1	> 99.5 µM	> 100 µM
COc1cc(NC(=O)OCc2ccccc2)cc(C(=O)Nc2cccc(CN)c2)c1OC	> 99.5 µM	> 100 µM
O=C(Nc1ccc2c(c1)CNC2)c1cc(=O)[nH]c2c(F)cccc12	> 99.5 µM	> 100 µM
O=C(Nc1ccc2c(c1)CNC2)C1(c2ccc(Cl)cc2)CCCC1	> 99.5 µM	> 100 µM
O=C(Nc1cc(Br)c2c(c1)CNC2)c1cc(F)cc2[nH]ncc12	40.4 µM	30.6 µM and 22.5 µM
Cc1c(C(=O)Nc2ccc3c(c2)CN(C)C3=O)cc(C2CC2)n1C	> 99.5 µM	> 100 µM
c1cncc(CN2CC[C@H](NCc3c[nH]c4ccccc34)C2)c1	> 99.5 µM	> 100 µM
COCc1cc(Cl)cc([C@H](Nc2ccc3c(c2)CNC3)C(=O)NCC(F)F)c1	> 99.5 µM	> 100 µM
C=CC[C@H](Nc1cccc(Cl)c1)c1cccc(-c2nn[nH]n2)c1	> 99.5 µM	41.5 µM and 38.9 µM
NCc1cccc(NC(=O)[C@H](NC(=O)OCc2ccccc2)c2cccc(OCCn3cccn3)c2)c1	> 99.5 µM	> 100 µM
Cn1ncc2c(C(=O)Nc3ccc4c(c3)CNC4)cc(-c3cccnc3)nc21	92.7 µM	> 100 µM
